From US20180185305A1, “An Amino Thiol for Use in the Treatment of an Infection Caused by the Bacterium Mycobacterium Spp” (NOVABIOTICS LIMITED, priority 2015, published 2018)

Experiments:
Assay type in all cases: cell-based
Mycobacterium abscessus [1] = assay: Antimicrobial susceptibility of M. abscessus isolates, CLSI broth microdilution (MIC100); conditions: for MIC: Mycobacteroides abscessus
Experimental: (§1) Mycobacterium absessus complex (MAC) was isolated from three participating patients. The susceptibility of these isolates, plus the MAC type strain M. abscessus DSMZ44196 to the antimicrobial effects of cysteamine alone and cysteamine combined with antibiotics employed in MAC eradication strategies, (amikacin, azithromycin and meropenem) was assessed by CLSI broth microdilution procedure [CLSI, 2012] and checkerboard assay respectively.

[2] = system: polymicrobial load in CF sputum; assay: Effect of cysteamine and antibiotics on CF sputum microbial burden: single exposure; conditions: overall over 4 and 24 h exposure; for reduction of polymicrobial load: cysteamine 1 mg/ml
Experimental: Sputum samples were processed for antimicrobial activity within 4 h of collection. To assess the antimicrobial impact of cysteamine alone and cysteamine in conjunction with antibiotics commonly used to treat infective exacerbations of CF lung disease, 0.2 ml of each sputum sample sputum was diluted ten fold in sterile phosphate buffered saline (PBS) and vortexed. Aliquots (0.2 ml) of the homogenised diluted sample were exposed to cysteamine only (1 mg/ml), [ ] antibiotic (tobramycin [0.1 mg/ml] or ciprofloxacin, [0.1 mg/ml] only, cysteamine plus antibiotic or vehicle (PBS) only, for 4 and 24 h at 37° C. Sputum samples were then serially diluted 10-fold (1×10^−1 to 1×10^−8) and spread-plated on non-selective nutrient agar plates. Cultures were incubated at 37° C. and cfu/ml of bacteria quantified at 48 h.
FEV1 was expressed as a percentage of predicted using GLI 2012 reference equations. Sputum microbial load expressed as colony forming units approximated to a log-normal distribution and was therefore logarithmically transformed to base 10. Microbial load after incubation with cysteamine, tobramycin, ciprofloxacin after 4 and 24 hours was modelled using two way repeated measures ANOVA with post hoc testing using Bonferroni adjustment. Analyses were performed using IBM SPSS Statistics for Windows, v22.0 (Armonk, N.Y.).

Mycobacterium abscessus [3] = assay: Checkerboard assay of cysteamine combined with antibiotics, fractional inhibitory concentration index
Experimental: The Fractional Inhibitory Concentration (FIC) corresponds to an interaction coefficient indicating whether the combination of antimicrobial agents is synergistic, additive, antagonist or neutral. The FIC is determined by comparing the activity of an agent in combination (MIC of agent A+agent B) with the activity of the agent alone (MIC of agent A or agent B) as follow (Singh et al., 2000):
FIC=MICA[combition]/MICA[alone]+MICB[combination]/MICB[alone]
Additive combinations of two antimicrobial agents are indicated by a FIC index of 1, whereas a FIC index <1 indicates synergistic combinations. Neutral combinations would give a FIC between 1 and 4, a FIC index higher than 4 indicates antagonist effects between the two antimicrobial agents.
as §1

[4] = DSM44196, strain DSM44196 (type)
[5] = nine samples, ciprofloxacin 0.1 mg/ml
[6] = 23 samples, tobramycin 0.1 mg/ml, mean (95% CI)

| Structure (SMILES) | MIC (Mycobacterium abscessus [1]; [4]) | MIC (Mycobacterium abscessus [1]; strain MR27419N (clinical)) | MIC (Mycobacterium abscessus [1]; strain MR313292 (clinical)) | MIC (Mycobacterium abscessus [1]; strain MR313367D (clinical)) | reduction of polymicrobial load [2, 5] | effect of cysteamine on the impact of amikacin (by FICI) (Mycobacterium abscessus [3]; clinical and type strains) | effect of cysteamine on the impact of azithromycin (by FICI) (Mycobacterium abscessus [3]; clinical and type strains) | effect of cysteamine on meropenem sensitivity (Mycobacterium abscessus [3]; clinical isolates and type strain) | MIC range (Mycobacterium abscessus [1]; M. abscessus isolated from three study subjects) | reduction of polymicrobial load [2, 6] | further reduction of polymicrobial load compared with tobramycin ([2]; 23 samples) | further reduction of polymicrobial load compared with ciprofloxacin ([2]; nine samples) |
| --- | --- | --- | --- | --- | --- | --- | --- | --- | --- | --- | --- | --- |
| NCC[C@H](O)C(=O)N[C@@H]1C[C@H](N)[C@@H](O[C@H]2O[C@H](CN)[C@@H](O)[C@H](O)[C@H]2O)[C@H](O)[C@H]1O[C@H]1O[C@H](CO)[C@@H](O)[C@H](N)[C@H]1O [Amikacin] | 4 to 8 µg/mL | 16 µg/mL | 4 µg/mL | 16 µg/mL | – | – | – | – | – | – | – | – |
| CC[C@H]1OC(=O)[C@H](C)[C@@H](O[C@H]2C[C@@](C)(OC)[C@@H](O)[C@H](C)O2)[C@H](C)[C@@H](O[C@@H]2O[C@H](C)C[C@H](N(C)C)[C@H]2O)[C@](C)(O)C[C@@H](C)CN(C)[C@H](C)[C@@H](O)[C@]1(C)O [Azithromycin] | 1 to 2 µg/mL | 1 µg/mL | 8 µg/mL | 1 µg/mL | – | – | – | – | – | – | – | – |
| O=C(O)c1cn(C2CC2)c2cc(N3CCNCC3)c(F)cc2c1=O [Ciprofloxacin] | – | – | – | – | 0.84 log10 units | – | – | – | – | – | – | – |
| NCCS [Cysteamine, cysteamine] | 62.5 to 125 µg/mL | 125 µg/mL | 125 to 250 µg/mL | 62.5 to 125 µg/mL | 2.76 log10 units | potentiated the impact of amikacin in both clinical and type strains | azithromycin in all but one clinical strain | showing some concentration-specific antagonism | 62.5 to 250 µg/mL | 3.18 (2.30-4.07) log10 units | 1.76 log10 units | 1.92 log10 units |
| C[C@@H](O)[C@H]1C(=O)N2C(C(=O)O)=C(S[C@@H]3CN[C@H](C(=O)N(C)C)C3)[C@H](C)[C@H]12 [Meropenem] | 64 µg/mL | 64 µg/mL | 16 to 64 µg/mL | 16 to 64 µg/mL | – | – | – | – | – | – | – | – |
| NC[C@H]1O[C@H](O[C@H]2[C@H](O)[C@@H](O[C@H]3O[C@H](CO)[C@@H](O)[C@H](N)[C@H]3O)[C@H](N)C[C@@H]2N)[C@H](N)C[C@@H]1O [Tobramycin] | – | – | – | – | – | – | – | – | – | 1.42 (95% CI 0.92-1.92) log10 units | – | – |
